The target of the assay is Heat shock protein HSP 90-alpha (Homo sapiens, UniProt P07900). The assay is described as follows: FRET Assay. The conditions noted are these: pH 7.5; 25 °C.
The molecule `Cc1cc(C=Cc2ccccc2/C=N/N2CCOC2=O)nc(N)n1` [HSP90 Inhibitor, 7] showed an inhibitory constant (Ki) of 4 µM. For `Cc1cc(-c2ccc(Cl)cc2Cl)nc(N)n1` [HSP90 Inhibitor, 4] the value was 0.17 µM.

In turn, `Nc1nc(Cl)cc(-c2ccc(Cl)cc2Cl)n1` [HSP90 Inhibitor, 5] showed a Ki of 0.06 µM.

Usually Ki stands for the equilibrium dissociation constant of an inhibitor or competing ligand from its target. Low values mean tighter binding, high ones weaker binding.

(Values after BindingDB's records for doi:10.1111/j.1747-0285.2007.00535.x (Abbott Laboratories, 2007).)
